Source: ChEMBL document CHEMBL1131751, “Design and synthesis of 2-[4-[4-(m-(ethylsulfonamido)-phenyl) piperazin-1-yl]butyl]-1,3-dioxoperhydropyrrolo[1,2-c]imidazole (EF-7412) using neural networks. A selective derivative with mixed 5-HT1A/D2 antagonist properties” (Bioorg Med Chem Lett, 1999)

How the values were obtained:
D(2) dopamine receptor = D(2) dopamine receptor (Mus musculus, UniProt P61168); assay: Binding affinity towards Dopamine receptor D2
[1] = biological target: T1, 5-hydroxytryptamine receptor 1A (Mus musculus, UniProt Q64264); assay: Binding affinity towards 5-HT1A receptor
T1 sequence (Q64264 whole entry): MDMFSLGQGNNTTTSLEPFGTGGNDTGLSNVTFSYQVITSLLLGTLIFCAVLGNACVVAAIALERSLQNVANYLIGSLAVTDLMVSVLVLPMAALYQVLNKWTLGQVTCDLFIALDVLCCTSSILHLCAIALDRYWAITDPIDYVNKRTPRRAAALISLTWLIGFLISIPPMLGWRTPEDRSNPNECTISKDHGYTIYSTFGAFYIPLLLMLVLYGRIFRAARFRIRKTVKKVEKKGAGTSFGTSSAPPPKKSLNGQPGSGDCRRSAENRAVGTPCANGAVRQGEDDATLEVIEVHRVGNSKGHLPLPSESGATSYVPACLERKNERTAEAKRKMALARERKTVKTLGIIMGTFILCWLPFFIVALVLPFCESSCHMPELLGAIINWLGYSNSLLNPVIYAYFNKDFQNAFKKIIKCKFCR

[2] = biological target: T2, Alpha-1 adrenergic receptor (Mus musculus, UniProt P97714+P97717+P97718); assay: Binding affinity towards Alpha-1 adrenergic receptor; type: protein assay
T2 sequence (P97714 whole entry): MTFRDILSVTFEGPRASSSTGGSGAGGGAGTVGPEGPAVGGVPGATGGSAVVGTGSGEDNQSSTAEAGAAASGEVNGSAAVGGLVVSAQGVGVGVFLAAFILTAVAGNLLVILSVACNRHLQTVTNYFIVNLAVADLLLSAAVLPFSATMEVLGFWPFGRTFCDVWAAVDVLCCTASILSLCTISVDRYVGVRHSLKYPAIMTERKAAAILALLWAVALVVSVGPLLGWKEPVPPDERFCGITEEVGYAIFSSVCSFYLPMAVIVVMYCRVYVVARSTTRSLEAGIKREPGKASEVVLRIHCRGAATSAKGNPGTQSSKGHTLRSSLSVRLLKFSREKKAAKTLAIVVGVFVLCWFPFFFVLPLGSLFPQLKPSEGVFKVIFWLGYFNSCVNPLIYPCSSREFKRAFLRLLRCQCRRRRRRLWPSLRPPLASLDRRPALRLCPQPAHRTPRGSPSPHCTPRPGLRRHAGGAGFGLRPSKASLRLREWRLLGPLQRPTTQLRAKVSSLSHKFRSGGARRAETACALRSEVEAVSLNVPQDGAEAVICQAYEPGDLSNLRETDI
T2 sequence (P97717 whole entry): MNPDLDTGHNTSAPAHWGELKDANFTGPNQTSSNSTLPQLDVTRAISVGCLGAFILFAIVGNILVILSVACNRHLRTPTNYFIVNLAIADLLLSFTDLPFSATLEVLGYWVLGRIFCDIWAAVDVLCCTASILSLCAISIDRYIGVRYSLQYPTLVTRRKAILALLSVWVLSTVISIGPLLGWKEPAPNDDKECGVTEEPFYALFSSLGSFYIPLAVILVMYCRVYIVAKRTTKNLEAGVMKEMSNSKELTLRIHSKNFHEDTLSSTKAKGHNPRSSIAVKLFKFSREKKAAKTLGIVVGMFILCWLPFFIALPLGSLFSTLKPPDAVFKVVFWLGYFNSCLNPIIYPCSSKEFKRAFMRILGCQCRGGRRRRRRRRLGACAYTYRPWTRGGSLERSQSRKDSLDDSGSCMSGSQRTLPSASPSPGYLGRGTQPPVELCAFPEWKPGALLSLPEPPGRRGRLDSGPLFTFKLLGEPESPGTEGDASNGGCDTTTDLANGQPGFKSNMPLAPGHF
T2 sequence (P97718 whole entry): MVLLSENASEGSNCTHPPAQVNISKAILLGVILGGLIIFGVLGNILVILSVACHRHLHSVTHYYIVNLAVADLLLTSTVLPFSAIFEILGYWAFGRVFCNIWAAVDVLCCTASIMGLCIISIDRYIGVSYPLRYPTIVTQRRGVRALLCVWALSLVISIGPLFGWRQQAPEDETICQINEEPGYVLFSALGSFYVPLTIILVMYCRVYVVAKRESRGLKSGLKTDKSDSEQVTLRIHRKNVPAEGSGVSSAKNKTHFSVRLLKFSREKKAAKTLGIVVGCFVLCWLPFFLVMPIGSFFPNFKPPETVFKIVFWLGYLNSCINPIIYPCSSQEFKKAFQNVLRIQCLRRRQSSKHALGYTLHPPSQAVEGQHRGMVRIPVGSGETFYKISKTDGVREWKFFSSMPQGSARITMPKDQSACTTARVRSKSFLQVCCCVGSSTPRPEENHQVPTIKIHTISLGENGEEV

Sequence of D(2) dopamine receptor (P61168 whole entry): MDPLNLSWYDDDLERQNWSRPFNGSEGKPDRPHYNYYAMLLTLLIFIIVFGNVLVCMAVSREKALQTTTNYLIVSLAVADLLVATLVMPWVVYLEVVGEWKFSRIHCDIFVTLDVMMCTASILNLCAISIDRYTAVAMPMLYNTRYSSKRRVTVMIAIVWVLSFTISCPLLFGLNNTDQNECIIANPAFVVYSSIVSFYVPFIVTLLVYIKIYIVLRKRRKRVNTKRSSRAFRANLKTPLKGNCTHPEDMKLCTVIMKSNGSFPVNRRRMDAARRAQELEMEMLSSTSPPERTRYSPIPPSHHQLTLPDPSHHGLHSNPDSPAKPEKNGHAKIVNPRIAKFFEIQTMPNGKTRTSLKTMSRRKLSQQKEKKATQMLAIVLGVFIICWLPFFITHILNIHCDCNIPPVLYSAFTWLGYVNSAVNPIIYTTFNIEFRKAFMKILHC

CCS(=O)(=O)Nc1cccc(N2CCN(CCCCN3C(=O)C4CCCN4C3=O)CC2)c1 (stereo not drawn)
Ki (D(2) dopamine receptor): 22 nM | Ki [1]: 27 nM | Ki [2]: > 1000 nM
